Source: patent EP2181708A1, “Use of Valproate for reducing CHOP levels, particularly in a mammal having SCI” (Universitat Autonoma de Barcelona, priority 2008, dated 2010)

Assays:
Type in all cases: in vivo, Sprague-Dawley rats
hind limb locomotion = experiment: Open-field walking test (BBB scale) after spinal cord contusion; settings: SCI 250 Kdyn
Protocol: Adult females Sprague-Dawley rats aged 11 weeks (220-250 g) were anesthetized with pentobarbital (40 mg/kg i.p.). When unresponsive, the vertebral column was exposed and a laminectomy carried out at T8-T9 levels. Rostral T7 and caudal T10 vertebral bodies were clamped with Adson stabilizing forceps, and carefully adjusted to level the spinal cord in the horizontal plane. A contusion injury was performed using the Infinite Horizon impactor device (Precision Scientific Instruments, Lexington, KY). The stainless steel impounder tip was placed at 3-4 mm above the exposed spinal cord, and then a fast impact produced applying forces of 150 or 250 kilodynes (KDyn) to the exposed spinal cord. The wound was sutured with 5-0 silk thread in the muscular plane and the skin was closed with small clips and disinfected with povidone iodine solution. Sham-operated animals received the same surgical procedure but sustained no impact injury; the spinal cord was left exposed for 5 min. The animals were maintained in a warm environment until full recovery, and received preventive antibiotic (amoxicyline) and analgesic (buprenorphine) treatment. All animals were kept under standard conditions of light and temperature and fed with food and water ad libitum. […]

tibialis anterior muscle = experiment: Electrophysiological tests (H/M ratio, motor evoked potentials) after spinal cord contusion
Protocol: (§1) Adult females Sprague-Dawley rats aged 11 weeks (220-250 g) were anesthetized with pentobarbital (40 mg/kg i.p.). When unresponsive, the vertebral column was exposed and a laminectomy carried out at T8-T9 levels. Rostral T7 and caudal T10 vertebral bodies were clamped with Adson stabilizing forceps, and carefully adjusted to level the spinal cord in the horizontal plane. A contusion injury was performed using the Infinite Horizon impactor device (Precision Scientific Instruments, Lexington, KY). The stainless steel impounder tip was placed at 3-4 mm above the exposed spinal cord, and then a fast impact produced applying forces of 150 or 250 kilodynes (KDyn) to the exposed spinal cord. The wound was sutured with 5-0 silk thread in the muscular plane and the skin was closed with small clips and disinfected with povidone iodine solution. Sham-operated animals received the same surgical procedure but sustained no impact injury; the spinal cord was left exposed for 5 min. The animals were maintained in a warm environment until full recovery, and received preventive antibiotic (amoxicyline) and analgesic (buprenorphine) treatment. All animals were kept under standard conditions of light and temperature and fed with food and water ad libitum. The procedures involving animals were approved by the Ethics Committee of our institution, and followed the European Communities Council Directive 86/609/EEC.
VPA was intraperitoneally administered at an initial dose of 150 mg/kg by 3 h after surgery, and then a dose of 300 mg/Kg either every 24 h or every 12 h during the first week post-surgery, following by a dose of 300 mg/Kg every 24 h for the next two weeks. […]
Electrophysiological tests were performed at 14 and 28 days after operation. […] The H/M amplitude ratio was calculated. Motor evoked potentials (MEPs) were elicited by transcranial stimulation with two needle electrodes placed subcutaneously over the skull, delivering pulses of 0.1 ms duration and 25 mA intensity, and recorded from the tibialis anterior muscle (Garcia-Alias et al., 2003).

spinal cord = experiment: Histological analysis of lesion volume, tissue sparing and myelin after SCI
Protocol: as §1
VPA was intraperitoneally administered at an initial dose of 150 mg/kg by 3 h after surgery, and then a dose of 300 mg/Kg either every 24 h or every 12 h during the first week post-surgery, following by a dose of 300 mg/Kg every 24 h for the next two weeks. Groups of rats subjected to SCI or sham operation received VPA or saline injections following the same regime. Experiments were approved by the Ethics Committee at the Universitat Autònoma de Barcelona, and followed the European Communities Council Directive 86/609/EEC
At 3 or 35 days post-surgery, rats were perfused transcardially with 4% paraformaldehyde in 0.1M phosphate buffer saline (PBS, pH 7.4). […]

ventral horn motoneurons = experiment: Ventral horn neuron and motoneuron analysis (cresyl violet, NeuN) after SCI
Protocol: as §1, with “86/609/EEC. […]” for “86/609/EEC.”
Motoneurons were identified by their localization in the lateral ventral horn of spinal cord sections stained with cresyl violet and were counted following a method published elsewhere (Grossman et al, 2001) by size and morphological strict criteria. […] Only motoneurons with diameter larger than one square, i.e. ranging from 30 to 70 (m, and with a prominent nucleolus and being polygonal in shape were counted. The mean number of motoneurons per section was calculated. […]

[1] = epicenter and adjacent section of the spinal cord, 35 days

In the case of `CCCC(CCC)C(=O)O` [VPA, 2-propylpentanoic acid], the BBB score (hind limb locomotion; 7 days post-surgery, average of both groups) is reported as 3-4, the BBB score (hind limb locomotion; 35 days, VPA 300 mg/kg every 12 h one week then every 24 h two weeks, saline 8) is reported as 12 and the “mean amplitudes of MEPs” value (tibialis anterior muscle; 14 and 28 days postlesion, vs group control) is reported as “slightly higher”. For the same compound, the “mean H/M amplitude ratio” value (tibialis anterior muscle; 14 days, injured rats) was “about 9%”, the “mean H/M amplitude ratio” value (tibialis anterior muscle; 28 days, control group 20%) was 16% and the “extent of myelin loss” value (spinal cord; 2 mm from the epicenter, cresyl violet and luxol fast blue, 35 dpo) was “markedly reduced”. For the same compound, the “area of total tissue preserved” value (spinal cord; [1]) was “significantly increased”, the “area of white matter preserved” value (spinal cord; [1]) was “significantly increased” and the “lesions in the sections distal to the epicenter” value (ventral horn motoneurons; 35 days, vs saline) was “fewer lesions”. The “length of spinal cord devoid of motoneurons” value (ventral horn motoneurons; cresyl violet sections, especially caudal side, did not reach statistical significance) was “A reduction” and the “number of NeuN neurons” value (ventral horn motoneurons; ventral horn, distal to the epicenter) was “more abundant”.
